Reference: PubChem BioAssay AID2768 (The Scripps Research Institute Molecular Screening Center, 2010)

Target: metallo-beta-lactamase IMP-1 (Pseudomonas aeruginosa) (UniProt Q79MP6)
Experiment: inhibition of IMP-1 substrate hydrolysis – biochemical, epi-absorbance, dose response, late-stage follow-up (AID 2768)
Conditions: purified IMP-1, absorbance substrate hydrolysis

metallo-beta-lactamase IMP-1 (Pseudomonas aeruginosa), sequence (Q79MP6 1-246): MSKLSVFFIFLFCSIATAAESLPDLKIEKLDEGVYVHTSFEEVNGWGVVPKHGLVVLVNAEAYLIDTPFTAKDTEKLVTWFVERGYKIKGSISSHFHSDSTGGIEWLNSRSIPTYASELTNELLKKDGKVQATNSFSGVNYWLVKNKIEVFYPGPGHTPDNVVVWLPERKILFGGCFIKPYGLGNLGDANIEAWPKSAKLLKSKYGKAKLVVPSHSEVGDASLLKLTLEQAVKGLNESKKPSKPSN

SMILES	IC50 [nM]
O=C(O)c1cc[c]([Hg][Cl])cc1	8700
CC(=O)Nc1cc[c]([Hg+])cc1	3740
COc1cccc[c]1[Hg+]	2330
Cc1cc[c]([Hg+])cc1	1810
[Hg+][c]1ccccc1	1510
O=C(O)c1ccc[c]([Hg+])c1	1330
